Structures can show the parent of a compound that is named as a salt. Where two headings read alike, the source gives them in different places.
Key:
ROCK2 [1] = molecular target: T1, ROCK2 (Homo sapiens (Human), UniProt O75116); conditions: reported by MLSCN, assay ID 644; read-out: ROCK2 enzymatic activity IC50; cited from earlier work
ROCK1 = ROCK1 (Homo sapiens (Human), UniProt Q13464); assay: FRET-based Z'-Lyte kinase assay, ROCK1; format: biochemical;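 further: kinase phosphorylates a coumarin/fluorescein-labelled FRET peptide, then a protease cleaves unphosphorylated peptide, progress read as donor to acceptor emission ratio after 400 nm excitation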
From the text: (§1) A) In the primary reaction, the Rho kinases phosphorylates a single serine or threonine residue in a synthetic FRET-peptide. This FRET-peptide is doubly labeled with a fluorophore at each end—coumarin (the FRET donor) on one end and fluorescein (the FRET acceptor) on the other—and also contains a single phosphorylation site which either overlaps with or lies adjacent to the proteolytic site. B) In the secondary reaction, a site-specific protease recognizes and cleaves the non-phosphorylated FRET-peptide. Cleavage disrupts FRET between the donor and acceptor fluorophores on the FRET-peptide, whereas uncleaved, phosphorylated FRET-peptides maintain FRET. Kinases phosphorylated FRET-peptides cannot be cleaved by the protease. […] Cleavage disrupts FRET and causes a decrease in the fluorescein fluorescence signal and a strong increase in the coumarin fluorescence signal. Therefore the extension of the phosphprylation can be measured by FRET-signal remaining the protease reaction. The assay uses a ratiometric method, which calculates the ratio of donor emission to acceptor emission (the emission ratio) after excitation of the donor fluorophore at 400 nm, to quantitate reaction progress.
(§2) All compounds were systematically screened against ROCK1 and ROCK2.

Aurora-A = Aurora-A (Homo sapiens (Human), UniProt O14965); assay: preliminary kinase-selectivity profile, Aurora-A; format: biochemical
ROCK2 [2] = molecular target: T1, ROCK2; assay: FRET-based Z'-Lyte kinase assay, ROCK2; format: biochemical;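 further: kinase phosphorylates a coumarin/fluorescein FRET peptide, then a protease cleaves unphosphorylated peptide, read as donor/acceptor emission ratio after 400 nm excitation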
From the text: as §1, §2

[3] = system: phosphorylation of MYPT1, a substrate for ROCK kinase, in H1299 cells; assay: phosphorylation levels of MYPT1 in intact H1299 cells (western blot); format: cell-based, human; conditions: for IC50: H1299 human lung cancer cells, read-out: IC50 for inhibition of phosphorylation of MYPT1
breast tumors = assay: transgenic mouse breast cancer model (rat Her2 under MMTV promoter); format: in vivo; conditions: 200 mpk/day, once a day for 14 days; last day of treatment relative to day of initiation
Experimental: The anti tumor activity of 1bo was determined in vivo in a transgenic mouse breast cancer model. In this model, the mice harbor the rat Her2 gene under the control of the MMTV promoter. These mice therefore spontaneously develop tumors in their mammary tissues. Breast tumors were measured beginning at the time of tumor onset and treatment (once a day for 14 days) with vehicle (20% HPCD) or 1bo (200 mpk/day) began when tumor volumes reached about 200 to 2,300 mm^3. A wide range of tumor volumes was used to ensure that responses were not volume dependent. […] The percent change was calculated from the tumor volume on the last day of treatment relative to the volume on the day of initiation of treatment. […] Thus, on average the breast tumors from 1bo treated mice were 6.6 fold smaller compared to those tumors from mice treated with the vehicle control.

T1 sequence (O75116 whole entry, species assumed): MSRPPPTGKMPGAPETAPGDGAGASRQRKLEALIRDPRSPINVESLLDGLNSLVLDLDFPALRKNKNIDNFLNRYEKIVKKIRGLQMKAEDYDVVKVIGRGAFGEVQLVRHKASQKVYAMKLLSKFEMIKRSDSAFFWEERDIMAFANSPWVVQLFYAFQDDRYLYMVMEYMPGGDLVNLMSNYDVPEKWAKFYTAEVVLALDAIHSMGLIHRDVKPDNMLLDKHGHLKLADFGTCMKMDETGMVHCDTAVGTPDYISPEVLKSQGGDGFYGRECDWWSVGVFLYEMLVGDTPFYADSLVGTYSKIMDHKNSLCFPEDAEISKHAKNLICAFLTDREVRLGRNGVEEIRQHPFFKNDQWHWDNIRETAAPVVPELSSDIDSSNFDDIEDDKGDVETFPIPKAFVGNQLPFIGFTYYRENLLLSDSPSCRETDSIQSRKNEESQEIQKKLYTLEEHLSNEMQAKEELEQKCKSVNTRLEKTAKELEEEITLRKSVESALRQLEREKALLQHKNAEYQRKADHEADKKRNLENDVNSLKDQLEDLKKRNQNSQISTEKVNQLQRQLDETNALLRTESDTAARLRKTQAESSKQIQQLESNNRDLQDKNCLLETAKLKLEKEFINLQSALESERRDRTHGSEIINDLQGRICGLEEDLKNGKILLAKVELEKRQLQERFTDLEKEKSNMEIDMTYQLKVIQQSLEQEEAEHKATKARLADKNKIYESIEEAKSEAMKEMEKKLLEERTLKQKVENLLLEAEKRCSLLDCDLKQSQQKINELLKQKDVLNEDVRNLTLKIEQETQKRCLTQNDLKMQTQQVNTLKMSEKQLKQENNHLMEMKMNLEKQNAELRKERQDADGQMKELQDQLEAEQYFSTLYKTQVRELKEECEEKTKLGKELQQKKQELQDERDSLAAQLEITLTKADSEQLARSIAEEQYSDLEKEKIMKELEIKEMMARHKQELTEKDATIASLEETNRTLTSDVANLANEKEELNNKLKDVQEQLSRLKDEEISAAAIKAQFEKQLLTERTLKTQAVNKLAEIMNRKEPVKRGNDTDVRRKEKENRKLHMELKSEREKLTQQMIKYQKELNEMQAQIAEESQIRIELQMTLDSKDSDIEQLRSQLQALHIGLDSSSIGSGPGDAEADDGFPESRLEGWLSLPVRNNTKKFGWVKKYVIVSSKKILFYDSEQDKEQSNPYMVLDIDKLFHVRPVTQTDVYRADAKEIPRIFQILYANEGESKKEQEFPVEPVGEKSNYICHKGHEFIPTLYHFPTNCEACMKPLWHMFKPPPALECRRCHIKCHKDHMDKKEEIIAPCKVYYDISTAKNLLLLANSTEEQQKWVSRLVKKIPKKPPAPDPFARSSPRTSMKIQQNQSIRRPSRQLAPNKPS
ROCK1, sequence (Q13464 whole entry, species assumed): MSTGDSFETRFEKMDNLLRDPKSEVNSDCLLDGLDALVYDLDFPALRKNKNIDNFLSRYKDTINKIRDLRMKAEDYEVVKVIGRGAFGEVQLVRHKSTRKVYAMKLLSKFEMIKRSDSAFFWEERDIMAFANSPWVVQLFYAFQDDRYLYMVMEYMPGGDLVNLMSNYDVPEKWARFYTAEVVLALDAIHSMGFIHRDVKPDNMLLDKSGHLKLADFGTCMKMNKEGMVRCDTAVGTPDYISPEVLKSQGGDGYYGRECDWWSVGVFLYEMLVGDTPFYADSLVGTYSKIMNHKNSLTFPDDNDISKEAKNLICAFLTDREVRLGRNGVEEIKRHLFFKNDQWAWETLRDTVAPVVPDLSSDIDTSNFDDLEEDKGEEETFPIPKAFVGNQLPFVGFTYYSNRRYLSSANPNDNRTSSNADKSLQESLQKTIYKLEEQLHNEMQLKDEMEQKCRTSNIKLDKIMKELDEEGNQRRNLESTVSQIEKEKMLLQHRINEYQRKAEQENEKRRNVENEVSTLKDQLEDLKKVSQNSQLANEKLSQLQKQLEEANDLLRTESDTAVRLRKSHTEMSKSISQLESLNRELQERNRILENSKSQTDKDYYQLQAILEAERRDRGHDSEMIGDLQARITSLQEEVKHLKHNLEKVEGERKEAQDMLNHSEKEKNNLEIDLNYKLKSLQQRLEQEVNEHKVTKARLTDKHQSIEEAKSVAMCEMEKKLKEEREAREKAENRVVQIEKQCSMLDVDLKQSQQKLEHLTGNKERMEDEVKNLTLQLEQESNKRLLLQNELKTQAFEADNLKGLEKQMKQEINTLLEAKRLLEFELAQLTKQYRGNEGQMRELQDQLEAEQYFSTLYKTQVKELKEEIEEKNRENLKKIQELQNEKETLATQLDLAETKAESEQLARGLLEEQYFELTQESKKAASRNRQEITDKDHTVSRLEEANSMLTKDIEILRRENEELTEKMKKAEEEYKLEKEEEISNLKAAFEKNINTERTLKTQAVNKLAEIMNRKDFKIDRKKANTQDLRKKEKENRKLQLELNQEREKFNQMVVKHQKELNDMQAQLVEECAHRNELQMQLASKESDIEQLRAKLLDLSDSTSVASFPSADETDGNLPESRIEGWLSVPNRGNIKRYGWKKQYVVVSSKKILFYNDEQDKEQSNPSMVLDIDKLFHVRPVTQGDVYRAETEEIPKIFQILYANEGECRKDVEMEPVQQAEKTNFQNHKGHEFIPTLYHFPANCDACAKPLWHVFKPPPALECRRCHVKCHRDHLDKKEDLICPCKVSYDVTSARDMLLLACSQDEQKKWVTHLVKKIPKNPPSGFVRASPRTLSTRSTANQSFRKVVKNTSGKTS
Aurora-A, sequence (O14965 whole entry): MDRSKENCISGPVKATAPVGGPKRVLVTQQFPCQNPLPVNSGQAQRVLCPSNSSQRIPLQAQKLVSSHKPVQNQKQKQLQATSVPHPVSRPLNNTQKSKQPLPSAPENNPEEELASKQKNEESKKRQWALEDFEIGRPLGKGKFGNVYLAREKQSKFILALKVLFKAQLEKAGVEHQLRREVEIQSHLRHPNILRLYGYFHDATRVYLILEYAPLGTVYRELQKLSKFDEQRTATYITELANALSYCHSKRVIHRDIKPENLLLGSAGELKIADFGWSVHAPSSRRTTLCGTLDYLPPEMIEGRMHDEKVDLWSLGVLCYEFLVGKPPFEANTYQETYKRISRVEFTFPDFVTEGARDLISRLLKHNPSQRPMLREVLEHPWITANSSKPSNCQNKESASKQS

Compound | IC50 (ROCK1; read-out: IC50 ± SD (μM) ROCK1) [µM] | IC50 (ROCK2 [2]; read-out: IC50 ± SD (μM) ROCK2) [µM] | also measured
O=C(Nc1nc(-c2ccncc2)cs1)C1COc2ccccc2O1 (stereo not shown) [CID5056270, reference compound] | – | – | IC50 (ROCK2 [1]): < 3 nM; IC50 (ROCK1; read-out: ROCK1 IC50): 0.076 µM; IC50 (Aurora-A): > 100000 nM; IC50 (ROCK2 [2]; read-out: ROCK2 IC50): 0.04 µM
COc1ccc(CNC(=O)Nc2nc(-c3ccncc3)cs2)cc1 [Compound 1am, 1-(4-Methoxybenzyl)-3-(4-(pyridin-4-yl)thiazol-2-yl)urea] | – | – | effect on phosphorylation of MYPT1 ([3]; H1299 cells, 10 μM): did not affect; inhibition at 50 µM (ROCK1; read-out: ROCK1 % inhibition @ 50 μM, 50 μM compound): 9.12%
O=C(NCc1cccc(O)c1)Nc1nc(-c2ccncc2)cs1 [Compound 1bo, 1-(3-Hydroxybenzyl)-3-(4-(pyridin-4-yl)thiazol-2-yl)urea] | – | – | IC50 [3]: 500 nM; IC50 (ROCK1; read-out: ROCK1 IC50): 0.008 µM; average percent change in tumor volume (breast tumors): 8.9%
O=C(NCc1cccc(O)c1)Nc1nc(-c2ccncc2)cs1 [Compound 1bo-Mes, 1-(3-hydroxybenzyl)-3-(4-(pyridin-4-yl)thiazol-2-yl)urea methanesulfonate] | – | – | IC50 ([3]; NCI-H1299): 500 nM; IC50 (ROCK1; methanesulfonate, read-out: IC50 ± SD (μM) ROCK1): 0.013 µM; IC50 (ROCK1; read-out: ROCK1 IC50): 0.012 µM
O=C(NCc1cccc(OC(F)F)c1)Nc1nc(-c2ccncc2)cs1 [Compound 1bs, 1-(3-(Difluoromethoxy)benzyl)-3-(4-(pyridin-4-yl)thiazol-2-yl)urea] | 0.92 ± 0.1 | 0.35 ± 0.08 | –
Cc1ccccc1CNC(=O)Nc1nc(-c2ccncc2)cs1 [Compound 1bt, 1-(2-Methylbenzyl)-3-(4-(pyridin-4-yl)thiazol-2-yl)urea] | 0.15 ± 0.03 | 0.12 ± 0.02 | –
NC(=O)[C@H](NC(=O)Nc1nc(-c2ccncc2)cs1)c1ccccc1 [Compound 1bv, (R)-2-Phenyl-2-(3-(4-(pyridin-4-yl)thiazol-2-yl)ureido)acetamide] | 3.7 ± 0.5 | 2.1 ± 0.36 | –
CCOc1cccc(CNC(=O)Nc2nc(-c3ccncc3)cs2)c1 [Compound 1bw, 1-(3-ethoxybenzyl)-3-(4-(pyridin-4-yl)thiazol-2-yl)urea] | 2.14 ± 0.62 | 0.29 ± 0.17 | –
CC(NC(=O)Nc1nc(-c2ccncc2)cs1)c1cccc(F)c1 (stereo not shown) [Compound 1ca, 1-(1-(3-fluorophenyl)ethyl)-3-(4-(pyridin-4-yl)thiazol-2-yl)urea] | 0.43 ± 0.13 | 0.28 ± 0.13 | –
C[C@@H](NC(=O)Nc1nc(-c2ccncc2)cs1)c1cccc(Cl)c1 [Compound 1cb, (R)-1-(1-(3-chlorophenyl)ethyl)-3-(4-(pyridin-4-yl)thiazol-2-yl)urea] | 0.55 ± 0.32 | 0.07 ± 0.02 | –
O=C(NCc1cc(F)cc(F)c1)Nc1nc(-c2ccncc2)cs1 [Compound 1cd, 1-(3,5-difluorobenzyl)-3-(4-(pyridin-4-yl)thiazol-2-yl)urea] | 4.07 ± 2.76 | 0.96 ± 0.56 | –
C[C@H](NC(=O)Nc1nc(-c2ccncc2)cs1)c1cccc(F)c1 [Compound 1cf, (S)-1-(1-(3-fluorophenyl)ethyl)-3-(4-(pyridin-4-yl)thiazol-2-yl)urea] | 30 ± 10 | 11 ± 6.74 | –
CS(=O)(=O)Nc1cccc(CNC(=O)Nc2nc(-c3ccncc3)cs2)c1 [Compound 1ch, N-(3-β3-(4-(pyridin-4-yl)thiazol-2-yl)ureido)methyl)phenyl)-methanesulfonamide hydrochloride] | 0.56 ± 0.1 | 0.1 ± 0.03 | –
CC(=O)Nc1cccc(CNC(=O)Nc2nc(-c3ccncc3)cs2)c1 [Compound 1ci, N-(3-((3-(4-(pyridin-4-yl)thiazol-2yl)ureido)methyl)phenyl)acetamide hydrochloride] | 1.25 ± 0.21 | 0.13 ± 0.02 | –
NC(=O)Nc1cccc(CNC(=O)Nc2nc(-c3ccncc3)cs2)c1 [Compound 1cj, hydrochloride] | 1.15 ± 0.39 | 0.18 ± 0.04 | –
COc1ccc(CNC(=O)Nc2nc(-c3ccncc3)cs2)cc1OC [Compound 1ck, 1-(3,4-Dimethoxybenzyl)-3-(4-(pyridin-4-yl)thiazol-2-yl)urea] | 45.1 ± 5.57 | 25 ± 1.01 | –
CC(C)(NC(=O)Nc1nc(-c2ccncc2)cs1)c1ccccc1 [Compound 1cl, 1-(2-Phenylpropan-2-yl)-3-(4-(pyridin-4-yl)thiazol-2-yl)urea] | 0.19 ± 0.04 | 0.07 ± 0.02 | –
C[C@H](c1ccccc1)N(C)C(=O)Nc1nc(-c2ccncc2)cs1 [Compound 1cn, (R)-1-Methyl-1-(1-phenylethyl)-3-(4-(pyridin-4-yl)thiazol-2-yl)urea] | 0.12 ± 0.04 | 0.047 ± 0.018 | –
NC(=O)[C@@H](NC(=O)Nc1nc(-c2ccncc2)cs1)c1ccccc1 [Compound 1cp, (S)-2-Phenyl-2-(3-(4-(pyridin-4-yl)thiazol-2-yl)ureido)acetamide] | 0.08 ± 0.01 | 0.04 ± 0.016 | fold loss of potency compared to 1at (ROCK1; comparator 1at): 11 fold
O=C(Nc1nc(-c2ccncc2)cs1)N[C@@H]1CCc2ccccc21 [Compound 1ct, (R)-1-(2,3-Dihydro-1H-inden-1-yl)-3-(4-(pyridin-4-yl)thiazol-2-yl)urea] | 28.2 ± 1.84 | 52.5 ± 1.75 | –
O=C(Nc1nc(-c2ccncc2)cs1)N1CCN(c2ccncc2)CC1 [Compound 12a, 4-(Pyridin-4-yl)-N-(4-(pyridin-4-yl)thiazol-2-yl)piperazine-1-carboxamide] | 16.9 ± 2.11 | 8.35 ± 2.36 | –

Further lines, with some results ahead:

IC50 (ROCK1; read-out: IC50 ± SD (μM) ROCK1) [µM] | IC50 (ROCK2 [2]; read-out: IC50 ± SD (μM) ROCK2) [µM] | Compound | also measured
13 ± 1.38 | 3.44 ± 0.87 | CC(C)Oc1cccc(CNC(=O)Nc2nc(-c3ccncc3)cs2)c1 [Compound 1bu, 1-(3-Isopropoxybenzyl)-3-(4-(pyridin-4-yl)thiazol-2-yl)urea] | –
3.36 ± 1 | 0.68 ± 0.43 | CCCOc1cccc(CNC(=O)Nc2nc(-c3ccncc3)cs2)c1 [Compound 1bx, 1-(3-propoxybenzyl)-3-(4-(pyridin-4-yl)thiazol-2-yl)urea] | –
> 50 | 11.9 ± 4.69 | COc1ccc([C@@H](C)NC(=O)Nc2nc(-c3ccncc3)cs2)cc1 [Compound 1bz, (R)-1-(1-(4-methoxyphenyl)ethyl)-3-(4-(pyridin-4-yl)thiazol-2-yl)urea] | –
0.11 ± 0.01 | 0.03 ± 0.01 | C[C@@H](NC(=O)Nc1nc(-c2ccncc2)cs1)c1cccc(F)c1 [Compound 1cc, (R)-1-(1-(3-fluorophenyl)ethyl)-3-(4-(pyridin-4-yl)thiazol-2-yl)urea] | fold less potent than 1ah (ROCK1; comparator 1ah): 3 fold
0.04 ± 0.01 | 0.015 ± 0.004 | COc1cccc(CN(C)C(=O)Nc2nc(-c3ccncc3)cs2)c1 [Compound 1cm, 1-(3-Methoxybenzyl)-1-methyl-3-(4-(pyridin-4-yl)thiazol-2-yl)urea] | –
6.44 ± 1.67 | 2.67 ± 0.89 | C[C@@H](c1ccccc1)N(C)C(=O)Nc1nc(-c2ccncc2)cs1 [Compound 1co, (S)-1-Methyl-1-(1-phenylethyl)-3-(4-(pyridin-4-yl)thiazol-2-yl)urea] | –
3.87 ± 0.351 | 1.95 ± 0.389 | O=C(Nc1nc(-c2ccncc2)cs1)N1CCc2ccccc2C1 [Compound 1cq, N-(4-(Pyridin-4-yl)thiazol-2-yl)-3,4-dihydroisoquinoline-2(1H)-carboxamide] | –
3.21 ± 0.9 | 1.83 ± 0.56 | O=C(Nc1nc(-c2ccncc2)cs1)N[C@H]1CCc2ccccc21 [Compound 1cu, (S)-1-(2,3-Dihydro-1H-inden-1-yl)-3-(4-(pyridin-4-yl)thiazol-2-yl)urea] | –
6.99 ± 1.61 | 3.82 ± 1.53 | O=C(Nc1nc(-c2ccncc2)cs1)N[C@@H]1CCCc2ccccc21 [Compound 1cv, (R)-1-(4-(Pyridin-4-yl)thiazol-2-yl)-3-(1,2,3,4-tetrahydronaphthalen-1-yl)urea] | –
6.25 ± 1.36 | 3.35 ± 0.87 | O=C(Nc1nc(-c2ccncc2)cs1)N[C@H]1CCCc2ccccc21 [Compound 1cw] | –
2.49 ± 1.07 | 3.75 ± 0.39 | O=C(Nc1nc(-c2ccncc2)cs1)Nc1ccccc1Cl [Compound 6e, 1-(2-Chlorophenyl)-3-(4-(pyridin-4-yl)thiazol-2-yl)urea] | –

From US9221808B2, “Pyridylthiazole-based ureas as inhibitors of Rho associated protein kinase (ROCK) and methods of use” (H. Lee Moffitt Cancer Center and Research Institute, Inc., priority 2010, dated 2015)
